# PubChem BioAssay (NCI)
#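 Method: 48-hour compound exposure of cells in 96-well plates, five concentrations, linear interpolation of endpoints. TGI marks complete inhibition of growth.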
# What was measured:
# Assay in all cases: DTP human tumour cell line panel, 48 h
# 786-0 renal = test system: 786-0 renal
# EKVX NSCLC = test system: EKVX NSCLC
# SF-268 CNS = test system: SF-268 CNS
# RXF 393 renal = test system: RXF 393 renal
# HOP-92 NSCLC = test system: HOP-92 NSCLC
# SF-295 CNS = test system: SF-295 CNS
# COLO 205 colon = test system: COLO 205 colon
# NCI/ADR-RES ovarian = test system: NCI/ADR-RES ovarian
# UACC-257 melanoma = test system: UACC-257 melanoma
# U251 CNS = test system: U251 CNS
# BT-549 breast = test system: BT-549 breast
# UO-31 renal = test system: UO-31 renal
# OVCAR-5 ovarian = test system: OVCAR-5 ovarian
# OVCAR-4 ovarian = test system: OVCAR-4 ovarian
# HT29 colon = test system: HT29 colon
# MOLT-4 leukemia = test system: MOLT-4 leukemia
# HL-60(TB) leukemia = test system: HL-60(TB) leukemia
# IGROV1 ovarian = test system: IGROV1 ovarian
# DU-145 prostate = test system: DU-145 prostate
# MDA-N = test system: MDA-N
# MALME-3M melanoma = test system: MALME-3M melanoma
# SK-MEL-28 melanoma = test system: SK-MEL-28 melanoma
# UACC-62 melanoma = test system: UACC-62 melanoma
# PC-3 prostate = test system: PC-3 prostate
# HCT-15 colon = test system: HCT-15 colon
# TK-10 renal = test system: TK-10 renal
# HOP-62 NSCLC = test system: HOP-62 NSCLC
# HS 578T breast = test system: HS 578T breast
# T-47D breast = test system: T-47D breast
# NCI-H522 lung = test system: NCI-H522 lung
# SF-539 CNS = test system: SF-539 CNS
# MDA-MB-435 = test system: MDA-MB-435
# OVCAR-8 ovarian = test system: OVCAR-8 ovarian
# OVCAR-3 ovarian = test system: OVCAR-3 ovarian
# M14 melanoma = test system: M14 melanoma
# HCT-116 colon = test system: HCT-116 colon
# MDA-MB-231 breast = test system: MDA-MB-231 breast
# SN12C renal = test system: SN12C renal
# NCI-H460 lung = test system: NCI-H460 lung
# LOX IMVI melanoma = test system: LOX IMVI melanoma
# SNB-19 CNS = test system: SNB-19 CNS
# ACHN renal = test system: ACHN renal
# RPMI-8226 leukemia = test system: RPMI-8226 leukemia
# SK-MEL-5 melanoma = test system: SK-MEL-5 melanoma
# MCF7 breast = test system: MCF7 breast
# SW-620 colon = test system: SW-620 colon
# KM12 colon = test system: KM12 colon
# NCI-H226 lung = test system: NCI-H226 lung
# A498 renal = test system: A498 renal
# SK-MEL-2 melanoma = test system: SK-MEL-2 melanoma
# CAKI-1 renal = test system: CAKI-1 renal
# SK-OV-3 ovarian = test system: SK-OV-3 ovarian
# SNB-75 CNS = test system: SNB-75 CNS
# A549 NSCLC = test system: A549 NSCLC
# NCI-H23 lung = test system: NCI-H23 lung
smiles,measurement,setting,value
O=C1NC(c2c(Cl)cccc2Cl)Nc2ccccc21 (stereo not drawn),TGI,786-0 renal,> 100 µM
same,TGI,EKVX NSCLC,> 100 µM
same,TGI,SF-268 CNS,> 100 µM
same,TGI,RXF 393 renal,> 100 µM
same,TGI,HOP-92 NSCLC,> 100 µM
same,TGI,SF-295 CNS,> 100 µM
same,TGI,COLO 205 colon,> 100 µM
same,TGI,NCI/ADR-RES ovarian,> 100 µM
same,TGI,UACC-257 melanoma,> 100 µM
same,TGI,U251 CNS,> 100 µM
same,TGI,BT-549 breast,> 100 µM
same,TGI,UO-31 renal,> 100 µM
same,TGI,OVCAR-5 ovarian,> 100 µM
same,TGI,OVCAR-4 ovarian,> 100 µM
same,TGI,HT29 colon,> 100 µM
same,TGI,MOLT-4 leukemia,> 100 µM
same,TGI,HL-60(TB) leukemia,46.9 µM
same,TGI,IGROV1 ovarian,> 100 µM
same,TGI,DU-145 prostate,> 100 µM
same,TGI,MDA-N,70.5 µM
same,TGI,MALME-3M melanoma,88.7 µM
same,TGI,SK-MEL-28 melanoma,> 100 µM
same,TGI,UACC-62 melanoma,> 100 µM
same,TGI,PC-3 prostate,> 100 µM
same,TGI,HCT-15 colon,> 100 µM
same,TGI,TK-10 renal,> 100 µM
same,TGI,HOP-62 NSCLC,> 100 µM
same,TGI,HS 578T breast,74.1 µM
same,TGI,T-47D breast,> 100 µM
same,TGI,NCI-H522 lung,> 100 µM
same,TGI,SF-539 CNS,> 100 µM
same,TGI,MDA-MB-435,33 µM
same,TGI,OVCAR-8 ovarian,> 100 µM
same,TGI,OVCAR-3 ovarian,> 100 µM
same,TGI,M14 melanoma,> 100 µM
same,TGI,HCT-116 colon,> 100 µM
same,TGI,MDA-MB-231 breast,> 100 µM
same,TGI,SN12C renal,> 100 µM
same,TGI,NCI-H460 lung,> 100 µM
same,TGI,LOX IMVI melanoma,> 100 µM
same,TGI,SNB-19 CNS,> 100 µM
same,TGI,ACHN renal,> 100 µM
same,TGI,RPMI-8226 leukemia,> 100 µM
same,TGI,SK-MEL-5 melanoma,72.7 µM
same,TGI,MCF7 breast,> 100 µM
same,TGI,SW-620 colon,> 100 µM
same,TGI,KM12 colon,43.7 µM
same,TGI,NCI-H226 lung,> 100 µM
same,TGI,A498 renal,> 100 µM
same,TGI,SK-MEL-2 melanoma,> 100 µM
same,TGI,CAKI-1 renal,76.7 µM
same,TGI,SK-OV-3 ovarian,> 100 µM
same,TGI,SNB-75 CNS,37.4 µM
same,TGI,A549 NSCLC,> 100 µM
NC(=O)CCC(CCC(N)=O)(CCC(N)=O)[N+](=O)[O-],TGI,786-0 renal,> 100 µM
same,TGI,EKVX NSCLC,> 100 µM
same,TGI,SF-268 CNS,> 100 µM
same,TGI,RXF 393 renal,> 100 µM
same,TGI,HOP-92 NSCLC,> 100 µM
same,TGI,SF-295 CNS,> 100 µM
same,TGI,COLO 205 colon,> 100 µM
same,TGI,NCI/ADR-RES ovarian,> 100 µM
same,TGI,UACC-257 melanoma,> 100 µM
same,TGI,U251 CNS,> 100 µM
same,TGI,BT-549 breast,> 100 µM
same,TGI,UO-31 renal,> 100 µM
same,TGI,OVCAR-5 ovarian,> 100 µM
same,TGI,HT29 colon,> 100 µM
same,TGI,MOLT-4 leukemia,> 100 µM
same,TGI,HL-60(TB) leukemia,> 100 µM
same,TGI,IGROV1 ovarian,> 100 µM
same,TGI,DU-145 prostate,> 100 µM
same,TGI,MDA-N,> 100 µM
same,TGI,MALME-3M melanoma,> 100 µM
same,TGI,NCI-H23 lung,> 100 µM
same,TGI,UACC-62 melanoma,> 100 µM
same,TGI,PC-3 prostate,> 100 µM
same,TGI,HCT-15 colon,> 100 µM
same,TGI,TK-10 renal,> 100 µM
same,TGI,HS 578T breast,> 100 µM
same,TGI,T-47D breast,> 100 µM
same,TGI,NCI-H522 lung,> 100 µM
same,TGI,SF-539 CNS,> 100 µM
same,TGI,MDA-MB-435,> 100 µM
same,TGI,OVCAR-8 ovarian,> 100 µM
same,TGI,M14 melanoma,> 100 µM
same,TGI,HCT-116 colon,> 100 µM
same,TGI,MDA-MB-231 breast,> 100 µM
same,TGI,SN12C renal,> 100 µM
same,TGI,NCI-H460 lung,> 100 µM
same,TGI,SNB-19 CNS,> 100 µM
same,TGI,ACHN renal,> 100 µM
same,TGI,RPMI-8226 leukemia,> 100 µM
same,TGI,SK-MEL-5 melanoma,> 100 µM
same,TGI,MCF7 breast,> 100 µM
same,TGI,SW-620 colon,> 100 µM
same,TGI,KM12 colon,> 100 µM
same,TGI,NCI-H226 lung,> 100 µM
same,TGI,SK-MEL-2 melanoma,> 100 µM
same,TGI,CAKI-1 renal,> 100 µM
same,TGI,SK-OV-3 ovarian,> 100 µM
same,TGI,SNB-75 CNS,> 100 µM
same,TGI,A549 NSCLC,> 100 µM
